Experimental data reported in patent EP1726305A1, “Zinc salt of omeprazole and its enantiomers” (Ratiopharm GmbH, priority 2005, dated 2006).
Values after ≈ are worked out from the molar mass of the structure shown. Read-outs that look alike come from different tables or passages of the source.

Tests used:
Type in all cases: physicochemical
[1] = Solubility of saturated solutions in aqueous media, HPLC/UV; details: for Löslichkeit: 0.5 h; for solubility thermodynamic at 0.5 h: saturated solution, n=1, 30 min ultrasound, read-out: Löslichkeit
Procedure: (§1) Insbesondere wurde zur Bestimmung der Schüttdichte jeweils etwa 250 ml Substanz, möglichst erschütterungsfrei in einen 250 ml Meßzylinder des Schütt-Stampf-Volumeters (Erweka SVM 22, Ser. Nr. 108.480.446) gefüllt und die Masse bestimmt (Schüttgewicht). Anschließend wurde der Meßzylinder 1250 Stampfvorgängen ausgesetzt, und das Stampfvolumen wurde abgelesen. Die Werte für die Schütt- bzw. Stampfdichte erhält man durch Division der Einwaage durch die jeweiligen Volumenwerte. Die Bestimmung wurde dreifach durchgeführt und aus den Einzelergebnissen jeweils der Mittelwert gebildet. Die Löslichkeit wurde bei Zimmertemperatur (25°C) bei verschiedenen pH-Werten untersucht, indem festes Material in den jeweiligen Medien durch Ultraschall und Schütteln soweit als möglich gelöst wurde. Die Proben wurden filtriert und über HPLC analysiert und mittels UV-Detektion vermessen.
Die Löslichkeit des Zinksalzes des (-)-Enantiomers des Omeprazols und des Magnesiumsalzes des (-)-Enantiomers des Omeprazols wurde wie folgt bestimmt. In den unten aufgeführten Medien wurden gesättigte Lösungen (n=1) hergestellt, die nach 30 Minuten Ultraschallbehandlung noch einen deutlichen Bodensatz zeigten. Der Überstand der gesättigten Lösungen wurde über einen Membranfilter (0,45µm, Millex HV 25 mm, Millipore) filtriert und die klare Lösung mittels einer HPLC-Methode auf den Gehalt des gelösten Salzes untersucht. (Reversed Phase Chromatographie, Gradientenmodus, Säule: Luna C18(2), 150 x 3 mm, Phenomenex, Eluent 1: 10mM Tris-(hydroxymethyl)-aminomethan-Puffer pH 9.0, Eluent 2 : Acetonitril).
Das Zinksalz des (-)-Enantiomers des Omeprazols wurde gemäß Beispiel 1 vorstehend hergestellt, das Magnesiumsalz des (-)-Enantiomers des Omeprazols gemäß der Offenbarung der WO 94/27988.

[2] = Water content by Karl Fischer titration (Ph.Eur. 2.5.32); details: oven temperature 130 °C
Excerpt: Während das Magnesiumsalz als Trihydrat vorliegt und daher per se einen erheblichen Wassergehalt von etwa 6,23% aufweist, ist der Wassergehalt des Zinksalzes des (-)-Enantiomers des Omeprazols ausgesprochen gering und liegt bei nur etwa 0,8%, was ebenfalls einen überraschenden Vorteil des Zinksalzes des (-)-Enantiomers des Omeprazols ausmacht. Diese Messungen erfolgten mittels Karl-Fischer-Titration gemäß Ph.Eur. 2.5.32 mit dem Gerät Aqua 40.00 (Fa. ECH Halle). Das Gerät war ausgestattet mit einem Ausheizofen für Feststoffproben. Die Ausheiztemperatur für die untersuchte substanz betrug 130 °C: Als KF-Reagenz wurde eingesetzt Hydranal (Coulomat AG, Riedel-de Haen. Als Standard wurde verwendet Natriumtartrat-dihydrat (Apura, Merck).

[3] = Bulk density and tapped density (Ph.Eur. 2.9.15, Erweka SVM 22 volumeter, 1250 taps); details: mean of three determinations; for Stampfdichte: after 1250 taps
Procedure: Sofern nichts anderes angegeben ist, erfolgt die Bestimmung der Schüttdichte und Stampfdichte nach Ph.Eur. 5.0 General Notices 2.9.15.
as §1
Auf folgende Art und Weise wurde die Schüttdichte und die Stampfdichte des nach Beispiel 1 hergestellten Zinksalzes des (-)-Enantiomers des Omeprazols bestimmt und mit den auf entsprechende Art und Weise bestimmten Werten des Magnesiumsalzes des (-)-Enantiomers des Omeprazols verglichen. Das Magnesiumsalz des (-)-Enantiomers des Omeprazols wurde entsprechend der Offenbarung der WO 94/27988 hergestellt.
Zur Bestimmung der Schüttdichte wurden jeweils 250 ml Substanz möglichst erschütterungsfrei in einen 250 ml Meßzylinder des Schütt-Stampf-Volumeters (Erweka SVM 22, Ser. Nr. 108.480.446) gefüllt und die Masse bestimmt (Schüttgewicht). Anschließend wurde der Meßzylinder 1250 Stampfvorgängen ausgesetzt, und das Stampfvolumen wurde abgelesen. Die Werte für die Schütt- bzw. Stampfdichte erhält man durch Division der Einwaage durch die jeweiligen Volumenwerte. Die Bestimmung wurde dreifach durchgeführt und aus den Einzelergebnissen jeweils der Mittelwert gebildet. Tabelle 1

| Löslichkeit ([1]; demineralised water) | Löslichkeit ([1]; usp buffer, pH 6) | Löslichkeit ([1]; usp buffer, pH 7) | Compound | Wassergehalt [2] | Stampfdichte [3] | Schüttdichte [3] | solubility thermodynamic at 0.5 h ([1]; demineralised water, dem. Wasser) [µg/mL] | solubility thermodynamic at 0.5 h ([1]; usp buffer, pH 6, aqueous buffer, USP-Puffer pH 6,0) [µg/mL] | solubility thermodynamic at 0.5 h ([1]; usp buffer, pH 6, aqueous buffer, USP-Puffer pH 6,8) [µg/mL] | solubility thermodynamic at 0.5 h ([1]; usp buffer, pH 7, aqueous buffer, USP-Puffer pH 7,4) [µg/mL] |
| --- | --- | --- | --- | --- | --- | --- | --- | --- | --- | --- |
| 0,02 mg/ml | 0,07 mg/ml | 0,04 mg/ml | Zinksalz des (-)-Enantiomers von Omeprazol [Zinksalz des (-)-Enantiomers des Omeprazols] | ~0,8% | 481,59 g/l | 415,62 g/l |  |  |  |  |
|  |  |  | COc1ccc2nc([S@@+]([O-])Cc3ncc(C)c(OC)c3C)[nH]c2c1 [Magnesiumsalz des (-)-Enantiomers des Omeprazols] | ~6,23% | 242,68 g/l | 199,00 g/l | 930 (≈ 2690 µM) | 780 (≈ 2260 µM) | 900 (≈ 2610 µM) | 890 (≈ 2580 µM) |
